Numbers after ± are expanded uncertainties.

Consider 1 compound from the NIST ThermoML archive (doi:10.1016/j.fluid.2005.05.015).

For the series the following is noted: Crystal 1; visual observation.

In the case of `CC[N+](C)(C)CCO.[Br-]` [ethyl(2-hydroxyethyl)dimethylammonium bromide], the Normal melting temperature was found to be 268.30 ± 1 °C.
